# Laboratory results: patent US11149033B2, “Heteroaryl compound, enantiomer, diastereomer or pharmaceutically acceptable salt thereof, and antiviral composition containing same as active ingredient” (priority 2016, dated 2021)
# Where two headings read alike, the source gives them in different places.
# Assays:
# [1] = in vitro
# [2] = tested on: A/California/07/2009 (H1N1); experiment: Antiviral activity (drug efficacy evaluation by concentration) against A/California/07/2009 (H1N1); format: cell-based, A type influenza virus; settings: Influenza A virus
# [3] = tested on: A/Perth/16/2009 (H3N2); experiment: Antiviral activity (drug efficacy evaluation by concentration) against A/Perth/16/2009 (H3N2); format: cell-based, A type influenza virus; settings: Influenza A virus
# [4] = CC50, third EC50/CC50 column pair (c7), beside the EC50 of c6
# [5] = CC50 B/Florida/04/2006, cytotoxicity in the B/Florida/04/2006 assay
# [6] = H1N1, A/California/07/2009 (H1N1), read-out: EC50 A/California/07/2009 (H1N1)
# [7] = H3N2, A/Perth/16/2009 (H3N2), read-out: EC50 A/Perth/16/2009 (H3N2)
smiles,measurement,setting,value
"CC(C)c1ccccc1/C=C/c1nnc(Nc2ccc(Br)cc2)o1 [Compound 117, (E)-N-(4-bromophenyl)-5-(2-isopropylstyryl)-1,3,4-oxadiazol-2-amine]",CC50,"[1]; CC50, beside the EC50 of c2",> 50 µM
same,CC50,"[1]; CC50, beside the EC50 of c4",> 50 µM
same,EC50,"[2]; H1N1, read-out: EC50",31.4 µM
same,melting point,,225.6 °C
same,EC50,"[3]; H3N2, read-out: EC50",43.5 µM
"Fc1ccc(/C=C/c2nnc(Cc3cccc(Cl)c3)o2)c(Cl)c1 [Compound 179, (E)-2-(2-chloro-4-fluorostyryl)-5-(3-chlorobenzyl)-1,3,4-oxadiazole]",CC50,"[1]; CC50, beside the EC50 of c2",> 50 µM
same,CC50,"[1]; CC50, beside the EC50 of c4",> 50 µM
same,CC50,[1]; [4],> 50 µM
same,EC50,"[2]; H1N1, read-out: EC50",0.632 µM
same,melting point,,104 °C
"Brc1ccc(Nc2nnc(/C=C/c3ccccc3Oc3ccccc3)o2)cc1 [Compound 125, (E)-N-(4-bromophenyl)-5-(2-phenoxystyryl)-1,3,4-oxadiazol-2-amine]",CC50,"[1]; CC50, beside the EC50 of c2",> 50 µM
same,CC50,"[1]; CC50, beside the EC50 of c4",> 50 µM
same,CC50,[1]; [4],> 50 µM
same,EC50,"[2]; H1N1, read-out: EC50",36.7 µM
same,EC50,"[3]; H3N2, read-out: EC50",> 50 µM
"Cc1ccccc1CCc1nnc(Nc2ccc(Br)cc2)o1 [Compound 89, N-(4-bromophenyl)-5-(2-methylphenethyl)-1,3,4-oxadiazol-2-amine]",CC50,"[1]; CC50, beside the EC50 of c2",> 50 µM
same,CC50,"[1]; CC50, beside the EC50 of c4",> 50 µM
same,CC50,[1]; [4],> 50 µM
same,EC50,"[2]; H1N1, read-out: EC50",> 50 µM
same,melting point,,153.5 °C
same,EC50,"[3]; H3N2, read-out: EC50",48.4 µM
"Cc1ccccc1CC1(c2nnc(Cc3ccc(Br)cc3)o2)CC1 [Compound 129, 2-(4-bromobenzyl)-5-(1-(2-methylbenzyl)cyclopropyl)-1,3,4-oxadiazole]",CC50,"[1]; CC50, beside the EC50 of c2",> 50 µM
same,CC50,"[1]; CC50, beside the EC50 of c4",> 50 µM
same,CC50,[1]; [4],> 50 µM
same,melting point,,72.2 °C
same,EC50,"[3]; H3N2, read-out: EC50",6.13 µM
"Cc1ccccc1CSc1ncc(C(=O)n2nc(C)c(Br)c2C)o1 [Compound 55, (4-bromo-3,5-dimethyl-1H-pyrazol-1-yl)(2-((2-methylbenzyl)thio)oxazol-5-yl)methanone]",CC50,[1]; [5],> 50 µM
same,melting point,,123.6 °C
"Cc1nn(C(=O)c2ccc(Oc3ccccc3C(C)C)o2)c(C)c1Br [Compound 57, (4-bromo-3,5-dimethyl-1H-pyrazol-1-yl)(5-(2-isopropylphenoxy)furan-2-yl)methanone]",CC50,[1]; [5],> 50 µM
same,melting point,,103.3 °C
"Cc1nn(C(=O)c2ccc(Sc3ccccc3C(C)C)o2)c(C)c1Br [Compound 56, (4-bromo-3,5-dimethyl-1H-pyrazol-1-yl)(5-((2-isopropylphenyl)thio)furan-2-yl)methanone]",CC50,[1]; [5],> 50 µM
same,melting point,,169.7 °C
"O=C(Nc1ccc(Br)cc1)c1nnc(SCc2ccccc2-c2ccccc2)o1 [Compound 72, 5-(([1,1′-biphenyl]-2-ylmethyl)thio)-N-(4-bromophenyl)-1,3,4-oxadiazole-2-carboxamide]",CC50,[1]; [5],25 µM
same,EC50,[2]; [6],0.73 µM
same,EC50,[3]; [7],23.5 µM
"Clc1ccc(-c2ccccc2/C=C/c2nnc(Cc3ccc(Br)cc3)o2)cc1 [Compound 153, 2-(4-bromobenzyl)-5-(2-(4′-chloro-[1,1′-biphenyl]-2-yl)vinyl)-1,3,4-oxadiazole]",CC50,"[1]; CC50, beside the EC50 of c2",> 50 µM
same,CC50,"[1]; CC50, beside the EC50 of c4",> 50 µM
same,CC50,[1]; [4],> 50 µM
same,melting point,,123.7 °C
"c1ccc(-c2ccccc2CSc2nnc(-c3cnn(-c4ccccc4)c3)o2)cc1 [Compound 36, 2-(([1,1′-biphenyl]-2-ylmethyl)thio)-5-(1-phenyl-1H-pyrazol-4-yl)-1,3,4-oxadiazole]",CC50,[1]; [5],> 50 µM
same,melting point,,114.2 °C
same,EC50,[3]; [7],> 50 µM
"Brc1ccc(Nc2nnc(/C=C/c3cccc4ncccc34)o2)cc1 [Compound 121, (E)-N-(4-bromophenyl)-5-(2-(quinolin-5-yl)vinyl)-1,3,4-oxadiazol-2-amine]",CC50,"[1]; CC50, beside the EC50 of c2",> 50 µM
same,CC50,"[1]; CC50, beside the EC50 of c4",> 50 µM
same,CC50,[1]; [4],> 50 µM
same,melting point,,246.5 °C
"CC(C)c1ccccc1/C=C/c1nc(Cc2ccc(Br)cc2)no1 [Compound 175, (E)-3-(4-bromobenzyl)-5-(2-isopropylstyryl)-1,2,4-oxadiazole]",CC50,"[1]; CC50, beside the EC50 of c2",> 50 µM
same,CC50,"[1]; CC50, beside the EC50 of c4",> 50 µM
same,CC50,[1]; [4],> 50 µM
same,melting point,,81.5 °C
"c1ccc(-c2nnc(SCc3ccccc3-c3ccccc3)o2)cc1 [Compound 43, 2-(([1,1′-biphenyl]-2-ylmethyl)thio)-5-phenyl-1,3,4-oxadiazole]",CC50,[1]; [5],> 50 µM
same,EC50,[2]; [6],> 50 µM
same,EC50,[3]; [7],> 50 µM
"CC(C)c1ccccc1/C=C/c1nnc(Cc2ccc(OC(F)(F)F)cc2)o1 [Compound 81, (E)-2-(2-isopropylstyryl)-5-(4-(trifluoromethoxy)benzyl)-1,3,4-oxadiazole]",CC50,"[1]; CC50, beside the EC50 of c2",> 50 µM
same,CC50,"[1]; CC50, beside the EC50 of c4",> 50 µM
same,CC50,[1]; [4],> 50 µM
same,melting point,,91.6 °C
"Cc1cccc(C)c1Nc1nnc(C(=O)c2ccc(F)c(Cl)c2)o1 [Compound 78, (3-chloro-4-fluorophenyl)(5-((2,6-dimethylphenyl)amino)-1,3,4-oxadiazol-2-yl)methanone]",CC50,[1]; [5],> 50 µM
same,melting point,,252.8 °C
"Cc1ccccc1Sc1nnc(CCn2nc(C)c(Br)c2C)o1 [Compound 54, 2-(2-(4-bromo-3,5-dimethyl-1H-pyrazol-1-yl)ethyl)-5-(o-tolylthio)-1,3,4-oxadiazole]",CC50,[1]; [5],> 50 µM
same,melting point,,103.6 °C
"Cc1cc(Cc2nnc(/C=C/c3ccc(F)cc3Cl)o2)ccc1Br [Compound 176, (E)-2-(4-bromo-3-methylbenzyl)-5-(2-chloro-4-fluorostyryl)-1,3,4-oxadiazole]",CC50,"[1]; CC50, beside the EC50 of c2",6.53 µM
same,CC50,"[1]; CC50, beside the EC50 of c4",> 50 µM
same,CC50,[1]; [4],> 50 µM
same,melting point,,119.9 °C
"Cc1cccc(C)c1CSc1nnc(Cn2nc(C)c(Br)c2C)o1 [Compound 40, 2-((4-bromo-3,5-dimethyl-1H-pyrazol-1-yl)methyl)-5-((2,6-dimethylbenzyl)thio)-1,3,4-oxadiazole]",CC50,[1]; [5],> 50 µM
same,EC50,[2]; [6],> 50 µM
same,melting point,,106.3 °C
"Clc1cccc(/C=C/c2nnc(Cc3ccc(Br)cc3)o2)c1 [Compound 167, 2-(4-bromobenzyl)-5-(3-chlorostyryl)-1,3,4-oxadiazole]",CC50,"[1]; CC50, beside the EC50 of c2",> 50 µM
same,CC50,"[1]; CC50, beside the EC50 of c4",> 50 µM
same,CC50,[1]; [4],> 50 µM
same,melting point,,105.1 °C
"Clc1ccc2oc(-c3nnc(Cc4ccc(Br)cc4)o3)cc2c1 [Compound 157, 2-(4-bromobenzyl)-5-(5-chlorobenzofuran-2-yl)-1,3,4-oxadiazole]",CC50,"[1]; CC50, beside the EC50 of c2",> 50 µM
same,CC50,"[1]; CC50, beside the EC50 of c4",> 50 µM
same,CC50,[1]; [4],> 50 µM
same,melting point,,149.7 °C
"Clc1ccccc1/C=C/c1nnc(Cc2ccc(Br)cc2)o1 [Compound 166, 2-(4-bromobenzyl)-5-(2-chlorostyryl)-1,3,4-oxadiazole]",CC50,"[1]; CC50, beside the EC50 of c2",> 50 µM
same,CC50,"[1]; CC50, beside the EC50 of c4",> 50 µM
same,CC50,[1]; [4],> 50 µM
same,melting point,,136.3 °C
"Clc1ccc(/C=C/c2nnc(Cc3ccc(Br)cc3)o2)cc1Cl [Compound 149, 2-(4-bromobenzyl)-5-(3,4-dichlorostyryl)-1,3,4-oxadiazole]",CC50,"[1]; CC50, beside the EC50 of c2",> 50 µM
same,CC50,"[1]; CC50, beside the EC50 of c4",> 50 µM
same,CC50,[1]; [4],> 50 µM
same,melting point,,164.5 °C
"Brc1ccc(Nc2nnc(/C=C/c3ccccc3-c3ccccc3)o2)cc1 [Compound 124, (E)-5-(2-([1,1′-biphenyl]-2-yl)vinyl)-N-(4-bromophenyl)-1,3,4-oxadiazol-2-amine]",CC50,"[1]; CC50, beside the EC50 of c2",> 50 µM
same,CC50,"[1]; CC50, beside the EC50 of c4",> 50 µM
same,CC50,[1]; [4],> 50 µM
same,melting point,,239.3 °C
same,EC50,"[3]; H3N2, read-out: EC50",> 50 µM
"Cc1cccc(C)c1Nc1nnc(C(O)c2ccccc2)o1 (stereo not shown) [Compound 77, (5-((2,6-dimethylphenyl)amino)-1,3,4-oxadiazol-2-yl)(phenyl)methanol]",CC50,[1]; [5],> 50 µM
same,melting point,,179 °C
"Cc1cccc(/C=C/c2nnc(Cc3ccc(Br)cc3)o2)c1C [Compound 150, 2-(4-bromobenzyl)-5-(2,3-dimethylstyryl)-1,3,4-oxadiazole]",CC50,"[1]; CC50, beside the EC50 of c2",> 50 µM
same,CC50,"[1]; CC50, beside the EC50 of c4",> 50 µM
same,CC50,[1]; [4],> 50 µM
same,melting point,,126.9 °C
same,EC50,"[3]; H3N2, read-out: EC50",> 50 µM
"CC(=Cc1ccccc1C)c1nnc(Cc2ccc(Br)cc2)o1 [Compound 138, 2-(4-bromobenzyl)-5-(1-(o-tolyl)prop-1-en-2-yl)-1,3,4-oxadiazole]",CC50,"[1]; CC50, beside the EC50 of c2",> 50 µM
same,CC50,"[1]; CC50, beside the EC50 of c4",> 50 µM
same,CC50,[1]; [4],> 50 µM
same,EC50,"[2]; H1N1, read-out: EC50",0.161 µM
"OC(c1cccc(-c2ccccc2)c1)c1nnc(Cc2ccc(Br)cc2)o1 (stereo not shown) [Compound 70, [1,1′-biphenyl]-3-yl(5-(4-bromobenzyl)-1,3,4-oxadiazol-2-yl)methanol]",CC50,[1]; [5],> 50 µM
same,melting point,,137.6 °C
same,EC50,[3]; [7],37.5 µM
"Cc1cccc(C)c1/C=C/c1nnc(Cc2ccc(Br)cc2)o1 [Compound 134, 2-(4-bromobenzyl)-5-(2,6-dimethylstyryl)-1,3,4-oxadiazole]",CC50,"[1]; CC50, beside the EC50 of c2",> 50 µM
same,CC50,"[1]; CC50, beside the EC50 of c4",> 50 µM
same,CC50,[1]; [4],> 50 µM
same,EC50,"[2]; H1N1, read-out: EC50",> 50 µM
same,EC50,"[3]; H3N2, read-out: EC50",> 50 µM
"Fc1ccc(/C=C/c2nnc(Cc3ccc(F)c(Br)c3)o2)c(Cl)c1 [Compound 207, 2-(3-bromo-4-fluorobenzyl)-5-(2-chloro-4-fluorostyryl)-1,3,4-oxadiazole]",CC50,"[1]; CC50, beside the EC50 of c2",> 50 µM
same,CC50,"[1]; CC50, beside the EC50 of c4",> 50 µM
same,CC50,[1]; [4],> 50 µM
same,melting point,,123 °C
"Cc1cc(Cc2nnc(/C=C/c3ccccc3C(C)C)o2)ccc1Br [Compound 172, 2-(4-bromo-3-methylbenzyl)-5-(2-isopropylstyryl)-1,3,4-oxadiazole]",CC50,"[1]; CC50, beside the EC50 of c2",> 50 µM
same,CC50,"[1]; CC50, beside the EC50 of c4",> 50 µM
same,CC50,[1]; [4],> 50 µM
same,melting point,,117.1 °C
"Fc1cc(Cl)ccc1/C=C/c1nnc(Cc2cccc(Br)c2)o1 [Compound 190, 2-(3-bromobenzyl)-5-(4-chloro-2-fluorostyryl)-1,3,4-oxadiazole]",CC50,"[1]; CC50, beside the EC50 of c4",40.1 µM
same,melting point,,107.2 °C
